Assay results: US10375956B2, “Herbicidally active 2-(substituted-phenyl)-cyclopentane-1,3-dione compounds and derivatives thereof” (Syngenta Limited, priority 2013, dated 2019)

How the values were obtained:
Assay type in all cases: in vivo
[1] = system: Digitaria sanguinalis (DIGSA); experiment: Test 2 glasshouse assay (IF50 formulation, X-77), post-emergence herbicidal activity; conditions: 360 h, 15 DAA, visual score, read-out: Post-emergence herbicidal activity (percentage phytotoxicity) DIGSA; for pest or weed control at 250 g/ha: application rate 250 g/ha; for pest or weed control at 125 g/ha: application rate 125 g/ha; for pest or weed control at 30 g/ha: application rate 30 g/ha
Method: (§1) Seeds of a variety of monocotyledonous and dicotyledonous test plants are sown in standard soil in pots. The plants are cultivated for one day (for pre-emergence) or for about 12 days (for post-emergence) under controlled conditions in a glasshouse (warm climate species at 24/18° C., cool climate species at 20/16° C., both at day/night; 16 hours light; 65% humidity).
(§2) An “instant formulation”, known as the “IF50”, containing 50 g/liter (i.e. 5% w/v) of the “technical” (i.e. unformulated) active ingredient is prepared by dissolving the active ingredient in a mixture of organic solvents and emulsifier, details of which are provided in the Table below. This IF50 is then mixed with a small, variable amount of acetone to aid dissolution, before addition of a 0.2% v/v aqueous solution of the adjuvant X-77 (which is a mixture of alkyl aryl polyoxyethylene glycols and free fatty acids in isopropanol, CAS Registry number 11097-66-8), as the aqueous diluent, to form an aqueous spray solution which contains a predetermined concentration of the active ingredient (which varies depending on the application rate of the active ingredient to the plants) and 0.2% v/v of the adjuvant X-77. This aqueous spray solution is then sprayed onto the plants, after one day's cultivation (for pre-emergence), or after about 12 days' cultivation (range=10-13 days) (for post-emergence).
(§3) The test plants are then grown on, in a glasshouse (greenhouse) under controlled conditions (warm climate species at 24/18° C., cool climate species at 20/16° C., both at day/night; 16 hours light; 65% humidity) and are watered twice daily. 15 days after application of the test herbicide (15DAA) (for post-emergence), and 20 days after application of the test herbicide (20DAA) (for pre-emergence), the test plants are evaluated visually, and an assessed percentage phytotoxicity score is given for each herbicidal application on each plant species (with 100%=total damage to plant; 0%=no damage to plant).
(§4) Warm climate (“warm season”) grassy monocotyledonous weeds: Setaria faberi (SETFA), Panicum miliaceum (PANMI), Sorghum vulgare Pers. (SORVU) (or Sorghum bicolor (L) Moench ssp. Bicolor), Digitaria sanguinalis (DIGSA), Echinochloa crus-galli (ECHCG), and Brachiaria plantaginea (BRAPL).

[2] = system: Sorghum vulgare Pers. (SORVU); experiment: as above; conditions: Sorghum bicolor, 360 h, 15 DAA, visual score, read-out: Post-emergence herbicidal activity (percentage phytotoxicity) SORVU; for pest or weed control at 250 g/ha: application rate 250 g/ha; for pest or weed control at 125 g/ha: application rate 125 g/ha; for pest or weed control at 30 g/ha: application rate 30 g/ha
Method: as §1, §2, §3, §4

[3] = system: Echinochloa crus-galli (ECHCG); experiment: as above; conditions: 360 h, 15 DAA, visual score, read-out: Post-emergence herbicidal activity (percentage phytotoxicity) ECHCG; for pest or weed control at 250 g/ha: application rate 250 g/ha; for pest or weed control at 125 g/ha: application rate 125 g/ha; for pest or weed control at 30 g/ha: application rate 30 g/ha
Method: as §1, §2, §3, §4

[4] = system: Panicum miliaceum (PANMI); experiment: as above; conditions: 360 h, 15 DAA, visual score, read-out: Post-emergence herbicidal activity (percentage phytotoxicity) PANMI; for pest or weed control at 250 g/ha: application rate 250 g/ha; for pest or weed control at 125 g/ha: application rate 125 g/ha; for pest or weed control at 30 g/ha: application rate 30 g/ha
Method: as §1, §2, §3, §4

Setaria faberi (SETFA) [5] = experiment: as above; conditions: 360 h, 15 DAA, visual score, read-out: Post-emergence herbicidal activity (percentage phytotoxicity) SETFA; for pest or weed control at 250 g/ha: application rate 250 g/ha; for pest or weed control at 125 g/ha: application rate 125 g/ha; for pest or weed control at 30 g/ha: application rate 30 g/ha
Method: as §1, §2, §3, §4

[6] = system: Zea mays (ZEAMX, corn/maize); experiment: Test 1 glasshouse assay, pre-emergence herbicidal activity; conditions: 312 h, visual evaluation after 13 days, read-out: Percentage phytotoxicity ZEAMX
Method: Seeds of a variety of test species are sown in standard soil in pots. After cultivation for one day (pre-emergence) or after 8 days cultivation (post-emergence) under controlled conditions in a glasshouse (at 24/16° C., day/night; 14 hours light; 65% humidity), the plants are sprayed with an aqueous spray solution derived from the formulation of the “technical” (i.e. unformulated) active ingredient in acetone/water (50:50) solution containing 0.5% Tween 20 (polyoxyethylene sorbitan monolaurate, CAS Registry Number 9005-64-5). The test plants are then grown on under controlled conditions in a glasshouse (at 24/16° C., day/night; 14 hours light; 65% humidity) and watered twice daily. After 13 days for pre- or post-emergence, the test is evaluated visually, and an assessed percentage phytotoxicity score is given for each herbicidal application on each plant species (where 100%=total damage to plant; 0%=no damage to plant).
Test plants include the following: Abutilon theophrasti (ABUTH), Amaranthus retroflexus (AMARE): these are dicotyledonous (broadleaved) weeds. Setaria faberi (SETFA), Alopecurus myosuroides (ALOMY), Echinochloa crus-galli (ECHCG): these are grassy monocotyledonous weeds. Also: Zea mays (ZEAMX, corn/maize), which can be a grassy weed (“volunteer” corn) in some circumstances.

Lolium perenne (LOLPE) = experiment: Test 2 glasshouse assay (IF50 formulation, X-77), pre-emergence herbicidal activity; conditions: 480 h, 250 g/ha, 20DAA, read-out: Percentage phytotoxicity LOLPE
Method: as §1, §2, §3
Cool climate (“cool season”) grassy monocotyledonous weeds: Alopecurus myosuroides (ALOMY), Avena fatua (AVEFA), Lolium perenne (LOLPE).

[7] = system: Digitaria sanguinalis (DIGSA); experiment: as above; conditions: 480 h, 250 g/ha, 20DAA, read-out: Percentage phytotoxicity DIGSA
Method: as §1, §2, §3, §4

[8] = system: Sorghum vulgare Pers. (SORVU); experiment: as above; conditions: Sorghum bicolor, 480 h, 250 g/ha, 20DAA, read-out: Percentage phytotoxicity SORVU
Method: as §1, §2, §3, §4

[9] = system: Echinochloa crus-galli (ECHCG); experiment: as above; conditions: 480 h, 250 g/ha, 20DAA, read-out: Percentage phytotoxicity ECHCG
Method: as §1, §2, §3, §4

[10] = system: Panicum miliaceum (PANMI); experiment: as above; conditions: 480 h, 250 g/ha, 20DAA, read-out: Percentage phytotoxicity PANMI
Method: as §1, §2, §3, §4

Setaria faberi (SETFA) [11] = experiment: as above; conditions: 480 h, 250 g/ha, 20DAA, read-out: Percentage phytotoxicity SETFA
Method: as §1, §2, §3, §4

Compound	pest or weed control at 250 g/ha [1]	pest or weed control at 250 g/ha [2]	pest or weed control at 250 g/ha [3]	pest or weed control at 250 g/ha [4]	pest or weed control at 250 g/ha (Setaria faberi (SETFA) [5])	pest or weed control at 250 g/ha [6]	pest or weed control at 250 g/ha (Lolium perenne (LOLPE))	pest or weed control at 250 g/ha [7]	pest or weed control at 250 g/ha [8]	pest or weed control at 250 g/ha [9]	pest or weed control at 250 g/ha [10]	pest or weed control at 250 g/ha (Setaria faberi (SETFA) [11])	other results
C#CCC1CC(=O)C(c2cc(-c3ncc(Cl)cn3)ccc2C)C1=O (stereo not drawn) [Compound A19]	70%	70%	70%	70%	60%	0%							
C#CCC1CC(=O)C(c2cc(-c3ncc(Cl)cc3F)ccc2C)C1=O (stereo not drawn) [Compound A18]	50%	70%	90%	60%	70%	30%							
C#CCC1CC(=O)C(c2c(C)cc(C)cc2C)C1=O (stereo not drawn) [Compound A23]							100%	90%	70%	100%	100%	90%	pest or weed control at 125 g/ha [1]: 100%; pest or weed control at 125 g/ha [2]: 90%; pest or weed control at 125 g/ha [3]: 100%; pest or weed control at 125 g/ha [4]: 100%; pest or weed control at 125 g/ha (Setaria faberi (SETFA) [5]): 80%
C#CCC1CC(=O)C(c2c(F)cc(-c3ccc(F)cc3F)cc2OC)C1=O (stereo not drawn) [Compound A21]						100%							
C#CCC1CC(=O)C(c2c(Cl)cc(-c3ccc(Cl)cn3)cc2OC)C1=O (stereo not drawn) [Compound A10]	100%	100%	100%	100%	100%	100%	70%	100%	100%	100%	100%	100%	pest or weed control at 30 g/ha [1]: 100%; pest or weed control at 30 g/ha [2]: 100%; pest or weed control at 30 g/ha [3]: 100%; pest or weed control at 30 g/ha [4]: 100%; pest or weed control at 30 g/ha (Setaria faberi (SETFA) [5]): 100%
C#CCC1CC(=O)C(c2c(F)cc(-c3ccc(Cl)cc3)cc2Cl)C1=O (stereo not drawn) [Compound A6, 2-[2-chloro-4-(4-chlorophenyl)-6-fluorophenyl]-4-prop-2-ynylcyclopentane-1,3-dione]	100%	100%	100%	100%	100%	90%	30%	20%	40%	50%	0%	0%	pest or weed control at 125 g/ha [1]: 100%; pest or weed control at 125 g/ha [2]: 100%; pest or weed control at 125 g/ha [3]: 100%; pest or weed control at 125 g/ha [4]: 100%; pest or weed control at 125 g/ha (Setaria faberi (SETFA) [5]): 100%
C#CCC1CC(=O)C(c2cc(-c3ccc(Cl)cc3Cl)ccc2C)C1=O (stereo not drawn) [Compound A15]	30%	40%	70%	70%	30%		0%	50%	30%	10%	20%	20%	
C#CCC1CC(=O)C(c2c(F)cc(-c3ccc(F)cc3)cc2OC)C1=O (stereo not drawn) [Compound A20, 2-[2-fluoro-4-(4-fluorophenyl)-6-methoxyphenyl]-4-prop-2-ynylcyclopentane-1,3-dione]						100%							
C#CCC1CC(=O)C(c2c(F)cc(-c3ccc(Cl)cn3)cc2Cl)C1=O (stereo not drawn) [Compound A8]	100%	100%	100%	100%	100%	90%	80%	80%	80%	60%	90%	70%	pest or weed control at 30 g/ha [1]: 90%; pest or weed control at 30 g/ha [2]: 100%; pest or weed control at 30 g/ha [3]: 70%; pest or weed control at 30 g/ha [4]: 100%; pest or weed control at 30 g/ha (Setaria faberi (SETFA) [5]): 90%
